# Values quoted from earlier work as cited in patent US20120046351A1, “Medicinal cannabis added in food” (priority 2010, published 2012).
# Tests used:
# [1] = tested on: people who use cannabis; settings: compared with the no cannabinoid and the TCH+CBD groups
# [2] = 180 degrees C.
smiles,measurement,setting,value
"CCCCCc1cc(O)c2c(c1)OC(C)(C)[C@@H]1CCC(C)=C[C@@H]21 [Δ^9-THC, Tetrahydrocannabinol]",positive schizophrenia-like symptoms,[1],higher levels of positive schizophrenia-like symptoms
same,degradation of Δ^9-THC into cannabinol and dihydrocannabinol,[2],A significant percentage of Δ^9-THC being degraded
